In test [1] the target is GDP-bound HRAS wild-type protein (Homo sapiens, UniProt P01112). Nature of the test: Binding to HRAS by surface plasmon resonance (SPR), Single Cycle Kinetics. Conditions: for HRAS/KRAS (ratio of KD value with respect to HRAS to KD value with respect to KRAS) / HRAS/KRAS (ratio of KD value for HRAS to KD value for KRAS): SPR, GDP-bound HRAS wild-type protein vs GDP-bound KRAS wild-type protein. On the technique in general: SPR reads the build-up and loss of mass on a sensor chip optically.

The target in test [2] is GDP-bound NRAS wild-type protein (Homo sapiens, UniProt P01111). Nature of the test: Binding to NRAS by surface plasmon resonance (SPR), Single Cycle Kinetics. The conditions noted are these: for NRAS/KRAS (ratio of KD value with respect to NRAS to KD value with respect to KRAS) / NRAS/KRAS (ratio of KD value for NRAS to KD value for KRAS): SPR, GDP-bound NRAS wild-type protein vs GDP-bound KRAS wild-type protein.

Test [3] addresses GDP-bound KRAS wild-type protein (Homo sapiens, UniProt P01116). The experiment in a line: Binding to KRAS by surface plasmon resonance (SPR), Single Cycle Kinetics. Conditions: GDP-bound KRAS wild-type protein, read-out: KRAS KD.
Setting [4] is: SPR Single Cycle Kinetics, 1:1 binding model.

Read-outs that look alike come from different tables or passages of the source. Where a SMILES comes first, the peptide text is derived from it. Bridges are numbered along the chain shown (N, C = ends). [ ]: non-standard residue; d: D form. The star is where a group is joined. hPhe(3-Cl-4-CF3) = N[C@@H](CCc1ccc(C(F)(F)F)c(Cl)c1)C(=O)O; NPrPhe(4-CF3) = CCCN[C@@H](Cc1ccc(C(F)(F)F)cc1)C(=O)O; NMeGly(cPent) = CN[C@H](C(=O)O)C1CCCC1; Gly(cPent) = N[C@H](C(=O)O)C1CCCC1; NMeD = CN[C@@H](CC(=O)O)C(=O)O; NMeL = CN[C@@H](CC(C)C)C(=O)O; Morpholide = C1CN(*)CCO1; NMeA = CN[C@@H](C)C(=O)O; Ac5c = NC1(C(=O)O)CCCC1; Aze = O=C(O)[C@@H]1CCN1; Sar = CNCC(=O)O

By Kd is commonly meant the equilibrium constant for the complex coming apart.

Sequence of GDP-bound NRAS wild-type protein (P01111 whole entry): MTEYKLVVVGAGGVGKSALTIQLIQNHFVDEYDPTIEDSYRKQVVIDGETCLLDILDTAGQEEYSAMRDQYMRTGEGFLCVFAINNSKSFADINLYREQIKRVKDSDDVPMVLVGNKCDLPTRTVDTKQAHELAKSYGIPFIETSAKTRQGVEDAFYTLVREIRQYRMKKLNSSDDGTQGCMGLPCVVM
Sequence of GDP-bound KRAS wild-type protein (P01116 whole entry): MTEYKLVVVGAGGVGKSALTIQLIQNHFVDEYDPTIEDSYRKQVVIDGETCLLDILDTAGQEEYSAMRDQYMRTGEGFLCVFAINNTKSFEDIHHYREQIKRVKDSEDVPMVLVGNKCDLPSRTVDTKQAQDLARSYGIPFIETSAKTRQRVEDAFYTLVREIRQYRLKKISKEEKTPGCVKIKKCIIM
Sequence of GDP-bound HRAS wild-type protein (P01112 whole entry): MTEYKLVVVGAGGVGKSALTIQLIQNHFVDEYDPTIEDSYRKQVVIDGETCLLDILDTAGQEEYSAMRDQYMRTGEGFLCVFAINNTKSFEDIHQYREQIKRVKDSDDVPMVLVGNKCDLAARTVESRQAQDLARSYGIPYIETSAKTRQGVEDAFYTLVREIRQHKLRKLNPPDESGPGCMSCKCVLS

With `CC[C@H](C)[C@@H]1NC(=O)[C@@H](CC(C)C)N(C)C(=O)C[C@@H](C(=O)N(C)C)N(C)C(=O)[C@@H](C2CCCC2)N(C)C(=O)C2(CCCC2)NC(=O)[C@@H]2CCCN2C(=O)[C@H](CCc2ccc(C(F)(F)F)c(Cl)c2)NC(=O)CN(C)C(=O)[C@@H](Cc2ccc(C)cc2)N2CC/C=C\CCN(CC2=O)C(=O)CN(C)C1=O` [PP0618], the “HRAS/KRAS (ratio of KD value with respect to HRAS to KD value with respect to KRAS)” value in test [1] was “C (A compound having a KD ratio of 0.1 or more and less than 3 is denoted as C)”. For the same compound, the “NRAS/KRAS (ratio of KD value with respect to NRAS to KD value with respect to KRAS)” value in test [2] is “C (A compound having a KD ratio of 0.1 or more and less than 3 is denoted as C)”. The Kd in test [3] (setting [4]) amounted to 6.2 nM.

With `CC[C@H](C)[C@@H]1NC(=O)[C@H](CC)N(C)C(=O)C[C@@H](C(=O)N(C)C)N(C)C(=O)[C@H](C2CCCC2)N(C)C(=O)C2(CCC2)NC(=O)[C@@H]2C[C@H](N3CCC(F)(F)CC3)CN2C(=O)[C@H](CCc2cc(F)c(C(F)(F)F)c(F)c2)NC(=O)CN(C)C(=O)[C@H](Cc2ccc(C(F)(F)F)cc2)N2CCCC[C@@H](C2=O)N(C)C(=O)CN(C)C1=O` [PP0732], in test [1], the “HRAS/KRAS (ratio of KD value with respect to HRAS to KD value with respect to KRAS)” value is “B (a compound having 3 or more and less than 10 is denoted as B)”. Moreover, in test [2], the “NRAS/KRAS (ratio of KD value with respect to NRAS to KD value with respect to KRAS)” value was “C (A compound having a KD ratio of 0.1 or more and less than 3 is denoted as C)”. In test [3] (setting [4]), the dissociation constant (Kd) turned out to be 0.039 nM.

For the compound `CC[C@H](C)[C@@H]1NC(=O)[C@H](COC)N(C)C(=O)C[C@@H](C(=O)N(C)C)N(C)C(=O)[C@H](C2CCCC2)N(C)C(=O)C2(CC(C)(C)C2)NC(=O)[C@@H]2CCCCN2C(=O)[C@H](CCc2cc(F)c(C(F)(F)F)c(F)c2)NC(=O)CN(C)C(=O)[C@H](Cc2ccc(C(F)(F)F)cc2)N2CC/C=C\C[C@@H](C2=O)N(C)C(=O)CN(C)C1=O` [PP2907], in test [1] (SPR KD ratio HRAS/KRAS, class symbols), the “HRAS/KRAS (ratio of KD value with respect to GDP-bound HRAS wild-type protein to KD value with respect to KRAS)” value is “A (a compound having 10 or more and less than 20 is denoted as A)”. The “NRAS/KRAS (ratio of KD value with respect to GDP-bound NRAS wild-type protein to KD value with respect to KRAS)” value in test [2] (SPR KD ratio NRAS/KRAS, class symbols) was “AA (a compound having 20 or more is denoted as AA)”. The Kd in test [3] (setting [4]) was found to be 0.23 nM.

As to `CCO[C@@H]1C[C@H]2C(=O)NC3(CCC3)C(=O)N(C)[C@@H](C3CCCC3)C(=O)N(C)[C@H](C(=O)N(C)CC)CC(=O)N(C)[C@@H](CC)C(=O)N[C@@H]([C@@H](C)CC)C(=O)N(C)CC(=O)N(C)[C@H]3C/C=C\CCN(C3=O)[C@@H](CC3CCC(F)(F)CC3)C(=O)N(C)CC(=O)N[C@@H](CCc3cc(F)c(C(F)(F)F)c(F)c3)C(=O)N2C1` [PP1553, (2S,8S,12R,14S,20S,23S,27S,30S,36S,38Z)-20-cyclopentyl-2-[(4,4-difluorocyclohexyl)methyl]-8-[2-[3,5-difluoro-4-(trifluoromethyl)phenyl]ethyl]-12-ethoxy-N,27-diethyl-N,4,19,22,26,32,35-heptamethyl-30-[(1S)-1-methylpropyl]-3,6,9,15,18,21,25,28,31,34,42-undecaoxo-spiro[1,4,7,10,16,19,22,26,29,32,35-undecazatricyclo[34.5.1.0^10,14]dotetracont-38-ene-17,1′-cyclobutane]-23-carboxamide], the “HRAS/KRAS (ratio of KD value for HRAS to KD value for KRAS)” value in test [1] (KD ratio class) was “A (a compound having 10 or more and less than 20 is denoted as A)”. The “NRAS/KRAS (ratio of KD value for NRAS to KD value for KRAS)” value in test [2] (KD ratio class) is “A (a compound having 10 or more and less than 20 is denoted as A)”. Moreover, the Kd in test [3] (SPR, Single Cycle Kinetics, 1:1 binding model) is 0.13 nM.

With `CCO[C@@H]1C[C@H]2C(=O)NC3(CCC3)C(=O)N(C)[C@@H](C3CCCC3)C(=O)N(C)[C@H](C(=O)N3CCC3)CC(=O)N(C)[C@@H](CC)C(=O)N[C@@H]([C@@H](C)CC)C(=O)N(C)CC(=O)N(C)[C@H]3C/C=C\CCN(C3=O)[C@@H](Cc3ccc(C(F)(F)F)cc3)C(=O)N(C)CC(=O)N[C@@H](CCc3cc(F)c(C(F)(F)F)c(F)c3)C(=O)N2C1` [PP1091, (2S,8S,12R,14S,20S,23S,27S,30S,36S,38Z)-23-(azetidine-1-carbonyl)-20-cyclopentyl-8-[2-[3,5-difluoro-4-(trifluoromethyl)phenyl]ethyl]-12-ethoxy-27-ethyl-4,19,22,26,32,35-hexamethyl-30-[(1S)-1-methylpropyl]-2-[[4-(trifluoromethyl)phenyl]methyl]spiro[1,4,7,10,16,19,22,26,29,32,35-undecazatricyclo[34.5.1.0^10,14]dotetracont-38-ene-17,1′-cyclobutane]-3,6,9,15,18,21,25,28,31,34,42-undecone], the “HRAS/KRAS (ratio of KD value for HRAS to KD value for KRAS)” value in test [1] is “B (a compound having 3 or more and less than 10 is denoted as B)”. Besides, the “NRAS/KRAS (ratio of KD value for NRAS to KD value for KRAS)” value in test [2] was “A (a compound having 10 or more and less than 20 is denoted as A)”. Besides, in test [3] (SPR, Single Cycle Kinetics), the Kd came to 0.11 nM.

Regarding `CCCN1C(=O)[C@@H]2CCN2C(=O)[C@H](C)N(C)C(=O)[C@H](C2CCCC2)NC(=O)[C@H](CC(C)C)N(C)C(=O)C[C@@H](C(=O)N2CCOCC2)N(C)C(=O)[C@H](C2CCCC2)N(C)C(=O)C2(CCCC2)NC(=O)[C@@H]2CCCN2C(=O)[C@H](CCc2ccc(C(F)(F)F)c(Cl)c2)NC(=O)CN(C)C(=O)[C@@H]1Cc1ccc(C(F)(F)F)cc1` [PP0272] ([NMeL][Gly(cPent)][NMeA][Aze][NPrPhe(4-CF3)][Sar][hPhe(3-Cl-4-CF3)]P[Ac5c][NMeGly(cPent)][NMeD]-Morpholide; lactam N-11), the “HRAS/KRAS (ratio of KD value for HRAS to KD value for KRAS)” value in test [1] is “B (a compound having 3 or more and less than 10 is denoted as B)”. In test [2], the “NRAS/KRAS (ratio of KD value for NRAS to KD value for KRAS)” value is “C (A compound having a KD ratio of 0.1 or more and less than 3 is denoted as C)”. Moreover, in test [3] (setting [4]), the Kd was found to be 0.17 nM.

Take `CCO[C@@H]1C[C@H]2C(=O)NC3(CC(C)(C)C3)C(=O)N(C)[C@@H](C(CC)CC)C(=O)N(C)[C@H](C(=O)N(C)C)CC(=O)N(C)[C@@H](CC)C(=O)N[C@@H]([C@@H](C)CC)C(=O)N(C)CC(=O)N(C)[C@H]3C/C=C\CCN(C3=O)[C@@H](Cc3ccc(C)cc3)C(=O)N(C)CC(=O)N[C@@H](CCc3ccc(C(F)(F)F)c(Cl)c3)C(=O)N2C1` [PP2154]: the “HRAS/KRAS (ratio of KD value for HRAS to KD value for KRAS)” value in test [1] was “A (a compound having 10 or more and less than 20 is denoted as A)”. Moreover, the “NRAS/KRAS (ratio of KD value for NRAS to KD value for KRAS)” value in test [2] was “A (a compound having 10 or more and less than 20 is denoted as A)”. In addition, the equilibrium dissociation constant (Kd) in test [3] (SPR, Single Cycle Kinetics) turned out to be 0.36 nM.

Take `CCCO[C@@H]1C[C@H]2C(=O)NC3(CC(C)(C)C3)C(=O)N(C)[C@@H](C3CCCC3)C(=O)N(C)[C@H](C(=O)N3CCCC3)CC(=O)N(C)[C@H]3CCCc4ccc(cc4)C[C@@H](C(=O)N(C)CC(=O)N[C@@H](CCc4ccc(C(F)(F)F)c(OC)c4)C(=O)N2C1)N1CC/C=C\C[C@@H](C1=O)N(C)C(=O)CN(C)C(=O)[C@H]([C@@H](C)CC)NC3=O` [PP3065]: the “HRAS/KRAS (ratio of KD value for HRAS to KD value for KRAS)” value in test [1] is “B (a compound having 3 or more and less than 10 is denoted as B)”. In addition, the “NRAS/KRAS (ratio of KD value for NRAS to KD value for KRAS)” value in test [2] was “A (a compound having 10 or more and less than 20 is denoted as A)”. Further, in test [3] (SPR, Single Cycle Kinetics), the Kd turned out to be 0.23 nM.
